The target in this experiment is T1, CdsN (GST-CdsN) (Chlamydia pneumoniae, UniProt A0ABN3YQA5).
T1 construct: gene yopN; GST tag kept, eluted from glutathione-agarose
T1 sequence (A0ABN3YQA5 1-442): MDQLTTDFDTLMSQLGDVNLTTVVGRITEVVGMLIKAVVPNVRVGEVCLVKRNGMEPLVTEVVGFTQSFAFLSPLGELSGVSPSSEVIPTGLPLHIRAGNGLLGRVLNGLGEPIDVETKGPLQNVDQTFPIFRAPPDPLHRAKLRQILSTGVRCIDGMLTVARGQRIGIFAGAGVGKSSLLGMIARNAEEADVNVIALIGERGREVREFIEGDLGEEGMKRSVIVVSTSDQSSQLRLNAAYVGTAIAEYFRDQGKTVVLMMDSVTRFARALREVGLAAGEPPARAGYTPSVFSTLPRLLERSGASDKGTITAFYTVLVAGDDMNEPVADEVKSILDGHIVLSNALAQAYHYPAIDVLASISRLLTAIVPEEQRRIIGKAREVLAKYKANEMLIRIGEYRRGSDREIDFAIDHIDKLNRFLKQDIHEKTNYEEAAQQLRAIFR
The experiment in a line: ATP hydrolysis, malachite green phosphate assay. The note with it: […] ATP, […] Tris-HCl pH […] MgCl2, […] KCl, […] °C, […] min. It is filed as biochemical.

Regarding `Nc1ncnc2c1ncn2[C@@H]1O[C@H](COP(=O)(O)OP(=O)(O)OP(=O)(O)O)[C@@H](O)[C@H]1O` [ATP], the “ATP hydrolysis, malachite green phosphate assay” value is “ATP hydrolysis by GST-CdsN purified from glutathione-agarose beads was measured using a malachite green assay”.

The values above are taken from article PMC2765968, “A novel inhibitor of Chlamydophila pneumoniae protein kinase D (PknD) inhibits phosphorylation of CdsD and suppresses bacterial replication” (BMC Microbiology, 2009).
